Laboratory results: patent US5441883A, “A3 adenosine receptor, DNA, and uses” (priority 1993, dated 1995)
Where two headings read alike, the source gives them in different places.

Assays:
A3 adenosine receptor [1] = target: T1, A3 adenosine receptor (Rattus norvegicus, UniProt P28647); experiment: Direct radioligand binding / Scatchard analysis, stably transfected CHO cell membranes; details: for specific, high affinity binding to the A3 receptor: radiolabeled ligands
T1 sequence (P28647 1-320): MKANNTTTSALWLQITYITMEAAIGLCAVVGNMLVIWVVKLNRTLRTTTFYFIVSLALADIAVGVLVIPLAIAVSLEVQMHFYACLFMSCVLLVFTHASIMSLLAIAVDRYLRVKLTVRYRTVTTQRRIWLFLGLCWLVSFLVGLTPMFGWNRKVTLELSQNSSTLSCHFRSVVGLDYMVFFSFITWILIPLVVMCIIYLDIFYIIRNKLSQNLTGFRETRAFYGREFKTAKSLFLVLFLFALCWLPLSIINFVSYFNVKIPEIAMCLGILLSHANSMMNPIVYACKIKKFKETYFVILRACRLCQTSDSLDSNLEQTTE
Source text: FIG. 3 illustrates a Scatchard plot of radioligand binding assays for the A3 adenosine receptor performed with the adenosine radioligand [^125 I]APEA and membrane preparations from stably transfected CHO cells.
The entire coding region of the A3 cDNA insert from R226 was excised from pGem226 and subcloned into either the HindIII/XbaI sites of an RC-RSV expression vector (Invitrogene, San Diego, Calif.) or the HindIII/SmaI sites of pBC12BI (Cullen, 1987, Meth. Enzym. 152: 684-704). The resulting plasmids were called Rc-RSV226 and pBC226 respectively. For transient expression in COS-7 cells, pBC226 plasmid DNA was prepared in large-scale through one cycle of CsCl gradient ultracentrifugation and 45 μg pBC226 DNA were transfected into each 150mm dish of COS-7 cells according to the method of Chen and Okayama (1987, Molec. Cell Biol. 7: 2745-2752). For stable expression in CHO cells, 1 μg Rc-RSV226 plasmid DNA isolated from a small-scale preparation was purified using the Prep-A-Gene kit (Bio-Rad) and transfected into CHO cells by the CaPO4 method (Graham and van der Eb, 1973, Virol. 52: 456-463). After transfection, cells were cultured in DMEM (COS-7 cells) or F-12 (CHO cells) media supplemented with 10% fetal calf serum in a 3% CO2 atmosphere at 37° C. For stable transfection, selection was performed with neomycin (G418; SOURCE) at a concentration of 700 μg/ml; selection was started 72 hr after transfection and continued for 3 weeks. Cell colonies were screened for expression of the A3 adenosine receptor from the R226 expression vectors described herein by Northern blot hybridization of total cellular RNA with random-primed PCR226 probe (Maniatis et al., ibid.).
(§1) Cell membranes were prepared as follows. COS-7 cells (transient expressors) were harvested 48 hrs after transfection, whereas CHO cells (stable expressors) were grown to confluence in 150 mm plates. Cells were washed twice with ice-cold HOB buffer [15 mM Tris-HCl (pH 7.4), 5 mM MgCl2, 1 mM EDTA] and scraped off plates with a rubber policeman. Cells were then collected by centrifugation at 1,200 rpm (xx g), resuspended in HOB buffer, transferred to a Dounce homogenizer on ice, and homogenized for 20 sec with a CorTarge homogenizer (Eberbach Inc., Ann Arbor, Mich.) at the #3 speed setting. The homogenate was then centrifuged at 2,000 rpm (xx g) for 10 min at 4° C. The supernatant was saved and the pellet resuspended in HOB buffer and subjected to a second round of homogenation. The second homogenate was centrifuged at 2000 rpm (xx g) for 10 min and the pellet was discarded. Supernatants were pooled and centrifuged at 34,000 rpm (xx g) for 45 min. These crude membrane pellets were resuspended in TEM buffer [50 mM Tris-HCl (pH 7.4), 5 mM MgCl2, 1 mM EDTA]. Adenosine deaminase (Sigma, St Louis, Mo.) was added to the membrane suspensions to a concentration of 2 Units/ml and incubated at 37° C. for 30 min. The membrane suspension was subsequently recentrifuged at 34,000 rpm (xx g) for 45 min. The resulting pellet was resuspended in TEM buffer at a protein concentration of about 1 mg/ml and stored in small aliquots at -70° C. The protein concentration was measured according to the method of Lowry et al. (1954, J. Biol. Chem. 207: 1-XXX) using bovine serum albumin as a standard.
Radioligand binding assays were carried out in duplicate in 500 μl of a solution containing (at final concentrations) 50 mM Tris-HCl (pH 7.4), 5 mM MgCl2, 1 mM EDTA, 0.025 % ascorbic acid, radioligands, and appropriate drugs. […] ([aH]XAC), [^3 H]-labeled 2-[4-(2-[(4-aminophenyl)methylcarbobylamino]ethylaminocarbonyl)ethyl)phenyl]ethylamino-5'-N-ethylcarboxamidoadenosine ([^3 H]PAPA-APEC), and [^3 H]-labeled [2-(4-(2-carboxyethyl)phenylethyamino)5'-N-ethylcarboxamidoadenosine ([^3 H]CGS21680). Receptor binding was initiated by the addition of membrane preparations in an amount equivalent to 20-100 μg protein, and carried out at 37° C. for 1 hr.

A3 adenosine receptor [2] = target: T1, A3 adenosine receptor; experiment: biochemical; format: binding; details: for ability to compete with [125I]APNEA for A3 receptor binding: 100 μM
Procedure: FIGS. 4A and 4B illustrates competitive binding assays using stably transfected CHO cell membrane preparations.
as §1
Radioligand binding assays were carried out in duplicate in 500 μl of a solution containing (at final concentrations) 50 mM Tris-HCl (pH 7.4), 5 mM MgCl2, 1 mM EDTA, 0.025 % ascorbic acid, radioligands, and appropriate drugs. […] ([aH]XAC), [^3 H]-labeled 2-[4-(2-[(4-aminophenyl)methylcarbobylamino]ethylaminocarbonyl)ethyl)phenyl]ethylamino-5'-N-ethylcarboxamidoadenosine ([^3 H]PAPA-APEC), and [^3 H]-labeled [2-(4-(2-carboxyethyl)phenylethyamino)5'-N-ethylcarboxamidoadenosine ([^3 H]CGS21680). Receptor binding was initiated by the addition of membrane preparations in an amount equivalent to 20-100 μg protein, and carried out at 37° C. for 1 hr. Nonspecific binding was determined in the presence of 10 μM R-N^6 -phenyl-2-propyladenosine (R-PIA). After incubation, samples were filtered through glass fiber filters (Schleicher and Schuell #32) and washed three times with 4 ml ice-cold 10 mM TrisoHCl (pH 7.4). Radioactivity retained on the filters were counted using a Beckman LS6800 scintillation counter (Beckman Instruments, Palo Alto, Calif.). […] A LIGAND computer program was used for data analysis and curve fitting (Munson & Rodband, 1980, Anal. Biochem. 107: 220-225).
The A3 receptor was then characterized using competition assays between [^125 I]APNEA A3 receptor binding versus a series of other adenosine receptor ligands. Labeled APNEA was present in these assays at 0.5 nM; unlabled competitors were present at varying concentrations as shown in FIG. 4A.

A3 adenosine receptor [3] = target: T1, A3 adenosine receptor; experiment: cell-based; format: cell-based
Procedure: The concentrations of adenosine agonists used are 100 nM and the concentration of forskolin is 1 μM. Values are obtained from triplicate plates and shown as mean ±S.E.
The cell were not or pretreated with 100 ng/ml pertussis toxin for 18 hours. The concentration of forskolin and adenosine agonists used are as in FIG. 5.
It is known that the A 1 adenosine receptor inhibits adenylate cyclase activity and the A2 adenosine receptor stimulates adenylate cyclase respectively (Stiles, ibid.; Williams, ibid.).
(§2) Cells were grown to about 80% confluence in 150 mm dishes, washed twice with Ca^++ and Mg^++ -free PBS buffer and detached from plates with PBS buffer containing 0.02% EDTA. Cells were collected by centrifugation at 800 rpm (xx g) for 10 min at 4° C. and resuspended in an appropriate volume of KRH buffer [140 mM NaCl, 5 mM KCl , 2 mM CaCl2, 1.2 mM MgSO4, 1.2 mM KH2 PO4, 6 mM glucose, 25 mM Hepes-NaOH (pH 7.4)]. The cells were washed once with KRH buffer and resuspended in KRH buffer at a concentration of 10^7 cells/ml. Each of 100 μl aliquots of this cell suspension were added to a glass tube containing 100 μl KRH+200 μM Ro 20-1724 and incubated at 37° C. for 10 min. Prewarmed 200 μl KRH containing 200 μm Ro 20-1724 and test drugs were then added to the cells and mixed. After incubation at 37° C. for 20 min, 400 μl 10.5 mM NaAc (pH 6.2) were added and the glass tubes transferred to a boiling water bath. The incubated cell suspension were boiled for 20 min, and the tubes were then cooled to room temperature and centrifuged at 3000 rpm (xx g) for 15 min.
For experiments using pertussis toxin pretreatment, aseptic pertussis toxin (Sigma Chemical Co., St. Louis, Mo.) was dissolved in sterile water and added to the medium to a final concentration of 100 ng/ml. Toxin treatment was maintained for approximately 18 hours. The dishes were rinsed once with media immediately prior to the addition of adenosine receptor ligands and processed as described above.

cellular cAMP levels = experiment: Cellular cAMP levels after forskolin in wild type and stably transfected CHO cells; format: cell-based, Chinese hamster; details: Cricetulus griseus, 20 min, read-out: increase in cellular cAMP levels, 1 μM forskolin
Procedure: as §2

A3 adenosine receptor [4] = target: T1, A3 adenosine receptor; format: cell-based; details: 1 μM forskolin; 100 μM adenosine
[5] = stably transfected CHO membranes

CCCn1c(=O)c2[nH]c(C3CCCC3)nc2n(CCC)c1=O [DPCPX, 1,3-dipropyl-8-cyclopentylxanthine]
specific, high affinity binding to the A3 receptor (A3 adenosine receptor [1]; [5]): The only adenosine receptor ligand to show specific, high affinity binding to the A3 receptor was the A1 selective agonist [^125 I]APNEA
specific, high affinity binding to the A3 receptor (A3 adenosine receptor [1]; stably transfected CHO membranes, listed as [^3 H]DPCPX): does not bind to the A3 adenosine receptor
ability to compete with [125I]APNEA for A3 receptor binding (A3 adenosine receptor [2]): none of the methylxanthines tested were capable of competing with labeled APNEA
reversal of inhibitory effect of NECA on forskolin-stimulated cAMP production (A3 adenosine receptor [3]; 10 nM DPCPX): could not be reversed

CCCn1c(=O)c2[nH]c(-c3ccc(OCC(=O)NCCN)cc3)nc2n(CCC)c1=O [XAC]
specific, high affinity binding to the A3 receptor (A3 adenosine receptor [1]; [5]): The only adenosine receptor ligand to show specific, high affinity binding to the A3 receptor was the A1 selective agonist [^125 I]APNEA
ability to compete with [125I]APNEA for A3 receptor binding (A3 adenosine receptor [2]): none of the methylxanthines tested were capable of competing with labeled APNEA

Nc1ccc(CCNc2ncnc3c2ncn3[C@@H]2O[C@H](CO)[C@@H](O)[C@H]2O)cc1I [APNEA, N^6-2-(4-amino-3-iodo-phenyl) ethyladenosine]
saturable binding (Scatchard plot) (A3 adenosine receptor [1]; [125I]APNEA, stably transfected CHO membranes): 225 fmol/mg
Kd (A3 adenosine receptor [1]; [125I]APNEA, stably transfected CHO membranes, read-out: Kd (Scatchard plot analysis)): 0.0155 ± 0.0024 µM
affinity at A3 compared with other, well-characterized A1 receptors (A3 adenosine receptor [1]; comparison with literature A1 receptors (Stiles et al., 1985)): about ten-fold lower
specific, high affinity binding to the A3 receptor (A3 adenosine receptor [1]; [5]): saturable and high affinity binding
specific, high affinity binding to the A3 receptor (A3 adenosine receptor [1]; stably transfected CHO membranes, listed as [^125 I]APNEA): only adenosine receptor ligand to show specific, high affinity binding to the A3 receptor

C=C[C@@]1(C)CC(=O)[C@]2(O)[C@@]3(C)[C@@H](O)CCC(C)(C)[C@@H]3[C@H](O)[C@H](OC(C)=O)[C@@]2(C)O1 [forskolin]
fold induction at 1 µM (cellular cAMP levels): 15

Nc1ncnc2c1ncn2[C@@H]1O[C@H](CO)[C@@H](O)[C@H]1O [Adenosine, adenosine]
affinity relative to nucleotides (A3 adenosine receptor [2]): much higher affinity than ATP, ADP, AMP, cAMP or UTP
IC50 (A3 adenosine receptor [2]; Table I and text, 0.5 nM [125I]APNEA): 30 ± 4 µM
pharmacological profile of inhibition of [125I]APNEA binding (A3 adenosine receptor [2]; rank order): R-PIA=NECA>S-PIA>adenosine>ATP=ADP
EC50 (A3 adenosine receptor [3]; Table II): 6.5 ± 2.1 µM
maximal effect on cAMP production (A3 adenosine receptor [3]; at the concentrations tested): does not reach its maximal effect at the concentrations tested
inhibition of forskolin-stimulated cAMP accumulation (A3 adenosine receptor [4]): 20-50%

CCNC(=O)[C@H]1O[C@@H](n2cnc3c(N)nc(NCCc4ccc(CCC(=O)O)cc4)nc32)[C@H](O)[C@@H]1O [CGS21680]
specific, high affinity binding to the A3 receptor (A3 adenosine receptor [1]; [5]): The only adenosine receptor ligand to show specific, high affinity binding to the A3 receptor was the A1 selective agonist [^125 I]APNEA
EC50 (A3 adenosine receptor [3]): 0.144 ± 0.034 µM
inhibition of forskolin-stimulated cAMP accumulation (A3 adenosine receptor [3]; 1 μM forskolin, 100 nM agonist): 20-50%
maximum inhibition of cAMP production (A3 adenosine receptor [3]; of control values): 40-50%
